Experiment [1] concerns Staphylococcus aureus ATCC 29213 (MSSA). The experiment in a line: minimum inhibitory concentration; extreme values may be limits of the assay. The procedure, abridged:
(§1)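 Broth microdilution in 96-well plates, following CLSI guidance with a resazurin redox read-out, was used to test methicillin-susceptible and methicillin-resistant Staphylococcus aureus. Compounds ranging from 0 to 100 µM were incubated with the bacteria at 37°C for 24 h, after which 30 µl of 0.015% resazurin was added for 2–4 h, and every plate carried positive controls. The minimum inhibitory concentration was taken as the lowest concentration at which wells stayed blue instead of turning pink, and runs were performed at least twice in triplicate.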

Experiment [2] deals with Staphylococcus aureus ATCC 700699 (MRSA). The description is as above. The essentials:
as §1

Converted amounts (≈) assume the structure as drawn.

Consider 59 molecules from the supplement of paper PMC6206229.

Take `CS(=O)(=O)N1CCC(Cn2nc(Cc3cccc4ccccc34)c3c(N)ncnc32)CC1`: the minimum inhibitory concentration in experiment [1] and in experiment [2] was greater than 50 µM in each case.
Regarding `COc1ccc(-c2nc(-c3cccc(NC(=O)Cc4ccc(F)cc4)c3)no2)cc1OC`, the minimum inhibitory concentration in experiment [1] and in experiment [2] was greater than 50 µM each time.
For `Cc1cc(NCCc2ccccc2)nc(NC(=N)Nc2ccc(Cl)cc2)n1`, the minimum inhibitory concentration in experiment [1] and in experiment [2] was 25 µM (≈ 9.52 µg/mL) in each case.
As to `Nc1nccc2ccc(-c3ccc4nccn4c3)cc12`, the minimum inhibitory concentration in experiment [1] and in experiment [2] was greater than 50 µM each time.
`COc1ccc(Oc2ccc([C@@H](C)N(C)c3ncc4c(N)nc(N)nc4n3)cc2)cc1`: the minimum inhibitory concentration in experiment [1] and in experiment [2] was greater than 50 µM throughout.
For the molecule `Cc1cc2ccccc2n1CC(=O)N1CC(C(=O)N2CCCCC2)Oc2ccccc21` (stereo not drawn), the minimum inhibitory concentration in experiment [1] and in experiment [2] was greater than 50 µM throughout.
Take `COc1ccc(OC(C)C(=O)Nc2ccc(Cl)cc2C)cc1` (stereo not drawn): the minimum inhibitory concentration in experiment [1] and in experiment [2] was greater than 50 µM throughout.
Turning to `CS(=O)(=O)c1cccc(-c2cnc3[nH]cc(-c4ccc(CCC(=O)O)cc4)c3c2)c1`, the minimum inhibitory concentration in experiment [1] and in experiment [2] was greater than 50 µM throughout.
Consider `CC1=Nc2ccc(Cl)cc2C(O)(c2ccc(C)cc2)N1CCN1CCCCC1` (stereo not drawn), for which the minimum inhibitory concentration in experiment [1] and in experiment [2] was greater than 50 µM throughout.
With `CCCCN(CCCC)c1c(C#N)cc(S(=O)(=O)Nc2ccccc2)cc1C#N`, the minimum inhibitory concentration in experiment [1] and in experiment [2] was greater than 50 µM in each case.
Regarding `O=C(NCc1cc(Cl)cc(Cl)c1)c1c(C(F)(F)F)nc2ccccn12`, the minimum inhibitory concentration in experiment [1] and in experiment [2] was greater than 50 µM in each case.
On to `CC(C)(C)n1nc(-c2ccccc2)c2c(N)ncnc21`, for which the minimum inhibitory concentration in experiment [1] and in experiment [2] was greater than 50 µM in each case.
Regarding `CC(C)n1ncc2c(C(=O)NCC(c3cccs3)N3CCOCC3)cc(-c3ccccc3)nc21` (stereo not drawn), the minimum inhibitory concentration in experiment [1] and in experiment [2] was greater than 50 µM in each case.
On to `C[C@H](c1ccc2c(c1)CCCC2)N(C)c1ncc2c(N)nc(N)nc2n1`, for which the minimum inhibitory concentration in experiment [1] and in experiment [2] was 50 µM (≈ 17.5 µg/mL) in each case.
With `Cc1cc(NC(=O)c2ccc(S(=O)(=O)N(Cc3ccccc3)C(C)C)cc2)no1`, the minimum inhibitory concentration in experiment [1] and in experiment [2] was greater than 50 µM each time.
On to `Clc1ccc(CCNc2cc(-c3ccccc3)nc3ncnn23)cc1`, for which the minimum inhibitory concentration in experiment [1] and in experiment [2] was greater than 50 µM in each case.
`CN1CCC(NCc2cccc(-c3ccc(S(=O)(=O)NCc4ccccc4)cc3)c2)CC1`: the minimum inhibitory concentration in experiment [1] and in experiment [2] was greater than 50 µM in each case.
As to `COc1cccc(-n2nnnc2S(C)(=O)=O)c1`, the minimum inhibitory concentration in experiment [1] and in experiment [2] was greater than 50 µM in each case.
In the case of `CNC(=O)C1Cc2ccccc2N1C(=O)Cc1ccc(F)cc1` (stereo not drawn), the minimum inhibitory concentration in experiment [1] and in experiment [2] was greater than 50 µM each time.
Take `Cc1cc(Nc2ccncc2)n2nc(C)c(-c3ccccc3Cl)c2n1`: the minimum inhibitory concentration in experiment [1] and in experiment [2] was greater than 50 µM each time.
As for `CC(C)(C)c1cc(C(=O)Nc2cccnc2)cc(C(=O)Nc2cccnc2)c1`, the minimum inhibitory concentration in experiment [1] and in experiment [2] was greater than 50 µM each time.
As for `CS(=O)(=O)c1ccc(C(=O)N(CC2CCCO2)c2nc3ccccc3s2)cc1[N+](=O)[O-]` (stereo not drawn), the minimum inhibitory concentration in experiment [1] and in experiment [2] was greater than 50 µM in each case.
As for `COc1ccc(CN2CCOc3ccc(C(C)(O)CN(C)C)cc3C2)cc1C` (stereo not drawn), the minimum inhibitory concentration in experiment [1] and in experiment [2] was greater than 50 µM each time.
As to `COc1cccc(-c2nc3c(N4CCCC4)cccc3n2CC2CCCN2)n1` (stereo not drawn), the minimum inhibitory concentration in experiment [1] is 25 µM (≈ 9.44 µg/mL); in experiment [2], 50 µM (≈ 18.9 µg/mL).
In the same order, the values of `c1ccc(Oc2ccc(-c3cc(N4CCOCC4)[nH]n3)cc2)cc1` are greater than 50 µM and greater than 50 µM.
The corresponding values for `COc1cc(-c2cc(-c3ccc(S(C)(=O)=O)cc3)cnc2N)ccc1O` are greater than 50 µM and greater than 50 µM.
In the same order, the values of `Cc1ccc2nc(C)c(-c3ccn(Cc4ccccc4)n3)n2c1` are greater than 50 µM and greater than 50 µM.
In the case of `COc1cc2ncnc(NC3CCN(Cc4ccccc4)CC3)c2cc1OC`, the minimum inhibitory concentration in experiment [1] and in experiment [2] was greater than 50 µM each time.
`O=C(NCCc1c[nH]c2ccccc12)c1cc2ccccc2oc1=O`: the minimum inhibitory concentration in experiment [1] and in experiment [2] was greater than 50 µM in each case.
For `COc1ccc2nc(C)cc(OCC(=O)Nc3ccccc3OC)c2c1`, the minimum inhibitory concentration in experiment [1] and in experiment [2] was greater than 50 µM in each case.
Turning to `NC(CC(=O)c1ccc(Cl)cc1Cl)C(Cl)(Cl)Cl` (stereo not drawn), the minimum inhibitory concentration in experiment [1] and in experiment [2] was greater than 50 µM in each case.
Take `O=C(N[C@H](Cc1ccccc1)C(=O)Nc1ccccc1N1CCOCC1)c1cccs1`: the minimum inhibitory concentration in experiment [1] and in experiment [2] was greater than 50 µM each time.
For `Cc1ccc2c(c1C)NC(=O)C21NN=C(c2ccccc2)S1` (stereo not drawn), the minimum inhibitory concentration in experiment [1] and in experiment [2] was greater than 50 µM each time.
For `Cc1noc(C)c1COc1cccc(C(=O)N=c2[nH]cccc2C)c1`, the minimum inhibitory concentration in experiment [1] and in experiment [2] was greater than 50 µM throughout.
Take `COC(=O)Nc1nc2cc(C(=O)c3ccccc3)ccc2[nH]1`: the minimum inhibitory concentration in experiment [1] and in experiment [2] was greater than 50 µM in each case.
Regarding `CC1=NN(c2nc3ccccc3s2)C(=O)C1Cc1cccc2ccccc12` (stereo not drawn), the minimum inhibitory concentration in experiment [1] and in experiment [2] was greater than 50 µM in each case.
Turning to `O=C(Nc1cccc(-c2ccc(NCCCN3CCCC3)nc2)c1)c1ccccc1`, the minimum inhibitory concentration in experiment [1] and in experiment [2] was greater than 50 µM in each case.
On to `O=C1Nc2ccc(Br)cc2C12NCCc1c2[nH]c2ccccc12` (stereo not drawn), for which the minimum inhibitory concentration in experiment [1] and in experiment [2] was greater than 50 µM throughout.
`COc1cc(C2=NCCN2)cc2cc(-c3ccc(C4=NCCN4)cc3)oc12`: the minimum inhibitory concentration in experiment [1] and in experiment [2] was greater than 50 µM each time.
For the molecule `COc1ccc(-c2nn(C(C)C)c3ncnc(N)c23)cc1OC`, the minimum inhibitory concentration in experiment [1] and in experiment [2] was greater than 50 µM in each case.
In the case of `CC(C)n1nc(-c2cc3c(Cl)cccc3[nH]2)c2c(N)ncnc21`, the minimum inhibitory concentration in experiment [1] and in experiment [2] was greater than 50 µM in each case.
For `CC(=O)Oc1ccccc1C(=O)Nc1ncc([N+](=O)[O-])s1`, the minimum inhibitory concentration in experiment [1] and in experiment [2] was greater than 50 µM each time.
Take `COc1ccc(C2=NCCN2)cc1-c1cn(-c2cccc(C3=NCCN3)c2)nn1`: the minimum inhibitory concentration in experiment [1] and in experiment [2] was greater than 50 µM each time.
As for `Cc1ncc(-c2ccnc(Nc3ccc(S(C)(=O)=O)cc3)n2)n1C(C)C`, the minimum inhibitory concentration in experiment [1] and in experiment [2] was greater than 50 µM throughout.
`Cc1cc(C)nc(-n2nc(C)cc2Nc2ccccc2)n1`: the minimum inhibitory concentration in experiment [1] and in experiment [2] was greater than 50 µM throughout.
Turning to `CO/N=C(\C(=O)OC)c1ccccc1CO/N=C(\C)c1cccc(C(F)(F)F)c1`, the minimum inhibitory concentration in experiment [1] and in experiment [2] was greater than 50 µM throughout.
Regarding `CC(c1cc(Cl)cc(Cl)c1)N(C)c1ncc2c(N)nc(N)nc2n1` (stereo not drawn), the minimum inhibitory concentration in experiment [1] and in experiment [2] was 50 µM (≈ 18.2 µg/mL) each time.
As for `O=C(Nc1cccc(Cl)c1)c1cnc(N2CCN(c3ccncc3)CC2)c(Cl)c1`, the minimum inhibitory concentration in experiment [1] and in experiment [2] was greater than 50 µM each time.
`O=C(c1ccc(NCCO)cc1)C1C[C@H]1c1ccc(Cl)cc1` (stereo partly drawn): the minimum inhibitory concentration in experiment [1] and in experiment [2] was greater than 50 µM throughout.
`c1ccc(Oc2ccc(-c3cncc(-c4ccc5[nH]ccc5c4)n3)cc2)cc1`: the minimum inhibitory concentration in experiment [1] and in experiment [2] was greater than 50 µM throughout.
For `CC1(C)OB(O)c2ccc(C3=NOC(c4cc(Cl)c(F)c(Cl)c4)(C(F)(F)F)C3)cc21` (stereo not drawn), the minimum inhibitory concentration in experiment [1] and in experiment [2] was 6.25 µM (≈ 2.89 µg/mL) in each case.
In the case of `Cc1ccc(S(=O)(=O)n2cc(-c3ccnc(N)c3)c3cc(Br)cnc32)cc1`, the minimum inhibitory concentration in experiment [1] and in experiment [2] was greater than 50 µM in each case.
For `COCC(C)NC(=O)CSc1ncnc2sc(-c3ccccc3)cc12` (stereo not drawn), the minimum inhibitory concentration in experiment [1] and in experiment [2] was greater than 50 µM each time.
In the case of `Nc1ncnc2c1ncn2[C@@H]1O[C@H](COS(=O)(=O)NC(=O)c2ccccc2O)[C@@H](O)[C@H]1O`, the minimum inhibitory concentration in experiment [1] and in experiment [2] was greater than 50 µM each time.
Turning to `O=C(C1CCCCC1)N1CC(=O)N2CCc3ccccc3C2C1` (stereo not drawn), the minimum inhibitory concentration in experiment [1] and in experiment [2] was greater than 50 µM in each case.
Turning to `O=C(COc1cccc(F)c1)Nc1nc(-c2ccccn2)cs1`, the minimum inhibitory concentration in experiment [1] and in experiment [2] was greater than 50 µM throughout.
In the case of `O=C(Cn1ccnc1[N+](=O)[O-])NCc1ccccc1`, the minimum inhibitory concentration in experiment [1] and in experiment [2] was greater than 50 µM throughout.
On to `Cc1nn(C)c(C)c1NS(=O)(=O)c1c(Cl)cc(-c2ccnc(N3CCNCC3)c2)cc1Cl`, for which the minimum inhibitory concentration in experiment [1] and in experiment [2] was greater than 50 µM throughout.
For the molecule `Clc1cccc(CO[C@H]2CCc3ccccc3[C@@H]2n2ccnn2)c1`, the minimum inhibitory concentration in experiment [1] and in experiment [2] was greater than 50 µM each time.
